Measurements taken from patent US20220089600A1, “TGFß INHIBITOR AND PRODRUGS” (FUNDACIÓ INSTITUT DE RECERCA BIOMÈDICA (IRB BARCELONA), priority 2018, published 2022).

What was measured:
[1] = target: T1, Cre-ER^T2 fusion protein in MEFs (Homo sapiens, UniProt P03372, G400V/L544A/M543A/V595A); assay: Co-culture MEF recombination assay (mTmG reporter, FACS); type: cell-based, mouse
T1 construct: Cre recombinase (fusion partner); host or cells: mouse embryonic fibroblasts from UbC-Cre-ER^T2; mTmG transgenic mice; the other entry of the earlier key: cre (P06956, Recombinase cre)
T1 sequence (P03372 with tags, fused parts or gaps G400V/M543A/L544A/V595A): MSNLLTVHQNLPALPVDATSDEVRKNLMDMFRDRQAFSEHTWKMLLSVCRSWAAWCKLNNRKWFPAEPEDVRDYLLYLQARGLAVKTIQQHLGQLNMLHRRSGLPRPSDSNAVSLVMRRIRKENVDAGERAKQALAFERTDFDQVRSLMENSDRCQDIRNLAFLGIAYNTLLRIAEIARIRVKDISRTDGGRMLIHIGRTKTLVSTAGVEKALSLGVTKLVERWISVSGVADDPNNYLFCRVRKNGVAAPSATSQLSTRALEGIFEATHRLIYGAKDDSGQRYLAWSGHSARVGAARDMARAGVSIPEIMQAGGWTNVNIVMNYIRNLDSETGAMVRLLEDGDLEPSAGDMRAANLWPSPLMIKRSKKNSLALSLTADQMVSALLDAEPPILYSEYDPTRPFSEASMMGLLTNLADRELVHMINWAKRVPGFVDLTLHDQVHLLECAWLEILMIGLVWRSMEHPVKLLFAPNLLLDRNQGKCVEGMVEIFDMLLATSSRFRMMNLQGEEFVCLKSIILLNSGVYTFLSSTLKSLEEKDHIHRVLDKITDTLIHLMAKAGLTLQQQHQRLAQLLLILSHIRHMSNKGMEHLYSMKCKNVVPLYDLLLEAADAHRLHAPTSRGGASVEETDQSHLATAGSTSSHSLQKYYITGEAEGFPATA
Description: The mouse model carries recombination reporter mTmG (JAX stock: 007676). This system expresses the membrane bound tdTomato (tandem dimer tomato; mT stands for membrane Tomato), which is a red fluorescent protein. Upon recombination with an activated Cre enzyme, the coding sequence for mT as well as a stop codon, being between loxP sites, is excised. […] Effectively this means that in the presence of a Cre enzyme, or in the presence of a 4-OHT activated Cre-ER^T2 fusion protein, the cells stop their production of tdTomato and proceed to express the EGFP; this genetic switch can be efficiently quantified by flow cytometry analysis. The mouse strain expressing mTmG was then crossed to a mouse carrying a Cre-ER^T2 fusion protein in all cells (UbC-Cre-ER^T2; Jax Stock: 008085). From the dual transgenic mouse, as well as from the reporter strain without Cre-ER^T2, MEFs were harvested from 14-day-old embryos. Briefly, pregnant females were sacrificed 14 days after plug formation, uteri were removed, and embryos were dissected: heads and fetal livers were discarded. The rest was minced and digested with trypsin and grown in 10-cm plates with aforementioned supplemented DMEM.
MEF recombination: MTO129, transduced with pLenti PGK-LigF (puro) or with an equivalent empty vector was trypsinized and single cells added onto UbC-Cre-ER^T2; mTmG (or control mTmG-only) MEFs grown in 12-well plates. The next day, either Z-4-OHT or the prodrug of formula VII was added in concentrations ranging from 1000 to 1 nM. Two days later, cells were trypsinized and analyzed by flow cytometry for TdTomato/EGFP fluorescence (Gallios, Beckman Coulter). Fluorescence was analyzed on viable cells in 2 dimensions and scored as percentages in the 4 quadrants. EGFP positive quadrants (Q2 and Q4, with or without TdTomato) were considered recombined and the fraction of the total was calculated. Data are the average (+SD) from two independent experiments.

[2] = test system: NTCF4-ER^T2 fusion protein in LS174T cells; assay: Co-culture LS174T-NTCF4-ER^T2 gene expression assay; type: cell-based; conditions: 16h
Description: These LS-NE cells were cultured in DMEM supplemented with L-glutamine and 10% fetal bovine serum (Life Technologies) at 37° C. and 5% CO2.
HEK293T cells transduced with pLenti PGK-LigF (puro) or with an equivalent empty vector were co-plated with LS174T-NTCF4-ER^T2 (LS-NE) cells, in a ratio of 1/10 in 6-well plates. Co-cultures were treated with DMSO, 1 μM Z-4-OHT or the prodrug of formula VII at 1 or 10 μM. After 16h, cells were lysed in trizol for RNA extraction (PureLink RNA Mini Kit, Life Technologies) and cDNA preparation (High Capacity cDNA RT kit, Applied Biosysytems). […] Data in FIG. 11 were normalized to the housekeeping gene, and to DMSO controls. Data are the average of technical replicates (+SD) from a single experiment.

LigF = target: T2, LigF (Sphingobium sp., UniProt P30347); assay: In vitro LigF cleavage of prodrug, HPLC-MS/MS; type: biochemical, Sphingobium sp. strain SYK-6; conditions: 37° C.
T2 construct: made in house; host or cells: E. coli BL21 (DE3) Rosetta lysS
T2 sequence (P30347 1-257): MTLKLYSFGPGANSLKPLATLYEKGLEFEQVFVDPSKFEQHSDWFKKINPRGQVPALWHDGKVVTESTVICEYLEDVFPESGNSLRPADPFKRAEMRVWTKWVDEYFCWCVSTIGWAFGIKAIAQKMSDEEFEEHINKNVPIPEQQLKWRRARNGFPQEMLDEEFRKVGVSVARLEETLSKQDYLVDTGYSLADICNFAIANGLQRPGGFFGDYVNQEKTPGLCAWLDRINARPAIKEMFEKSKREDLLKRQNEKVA
Description: Similar to the in vitro assay in 5.2., the compound of formula VII was diluted from a 30 mM stock solution in DMSO to 50 μM in 20 mM Tris-HCl (pH 7.5), 1 mM glutathione and 15 μg/ml LigF was added. However, the reaction mixture was incubated at 37° C. and the read-out was different: using HPLC-MS/MS. Reaction samples, as well as a control sample without enzyme and Z-4-OHT (4-hydroxytamoxifen) as a standard were diluted 2:3 in MeOH and 2 μl was injected onto a BioBasic C18 column (5 μm, 2.1×150 mm, Thermo; using a Thermo EC Finnigan Mod Micro AS autosamples and Thermo EC Quarternary pump, Finnigan Mod. Surveyor MS chromatograph) with a water-MeOH gradient (60-90% MeOH in 30 min; 90-100% in 5 min; 100 μl/min flow rate). LC-MS coupling was performed with the Advion Triversa Nanomate (Advion BioSciences, Ithaca, N.Y., USA) as the nanoESI source performing nanoelectrospray through chip technology. The Nanomate was attached to an LTQ-FT Ultra mass spectrometer and operated at a spray voltage of 1.7 kV and a delivery pressure of 0.5 psi in positive mode. In a LTQ-FT Ultra (Thermo Scientif) mass spectrometer, analyses were performed using 40V capillary voltage and 120V tube lens voltage. MS/MS was operated in a data-dependent acquisition (DDA) mode and in selected reaction monitoring (SRM) mode. Survey MS scans were acquired in the FT with the resolution (defined at 400 m/z) set to 100,000. Up to six of the most intense ions per scan were fragmented and detected in the linear ion trap. The ion count target value was 1,000,000 for the survey scan and 50,000 for the MS/MS scan. Target ions already selected for MS/MS were dynamically excluded for 30 s. For SRM, maximum injective was set to 400 ms and 2 microscans average.
Data are represented as XIC (extracted ion chromatogram) peak areas of parallel reaction monitoring (PRM) transitions, using QuanBrowser (Xcalibur software 2.0SR2).

Cre-ER^T2 fusion protein = target: T3, Cre-ER^T2 fusion protein (Homo sapiens, UniProt P03372, G400V/L544A/M543A/V595A); assay: In vivo gene recombination in UbCre-ER^T2; mTmG mice (EGFP immunohistochemistry); parameters: species or system mouse
T3 construct: Cre recombinase (fusion partner); tissue Jax Stock: 008085; host or cells: liver of transgenic UbCre-ER^T2; mTmG mice (transgene product); the other entry of the earlier key: cre (P06956, Recombinase cre)
Description: Using the UbCre-ER^T2; mTmG mice described in example 6, we treated these animals with the prodrug of formula VII at 1 or 5 μmol (approximately 0.6 or 3 mg, respectively) or with a vehicle control (oil). Five days after treatment, mice were sacrificed, and the liver was fixed overnight in 10% phosphate-buffered formalin (sigma) and embedded in paraffin, similar to the description of example 3 (FIG. 1).

human ALK5 = target: T4, human ALK5 (Homo sapiens, UniProt P36897); assay: KinaseProfiler enzymatic activity inhibition; type: biochemical; conditions: KinaseProfiler, 9-point curve, top 10 μM; read-out: Enzyme activity inhibition IC50 (nM) ALK5 (TGFBR1)
T4 construct: purchased Eurofins (Kinase Profiler service)
T4 sequence (P36897 34-503): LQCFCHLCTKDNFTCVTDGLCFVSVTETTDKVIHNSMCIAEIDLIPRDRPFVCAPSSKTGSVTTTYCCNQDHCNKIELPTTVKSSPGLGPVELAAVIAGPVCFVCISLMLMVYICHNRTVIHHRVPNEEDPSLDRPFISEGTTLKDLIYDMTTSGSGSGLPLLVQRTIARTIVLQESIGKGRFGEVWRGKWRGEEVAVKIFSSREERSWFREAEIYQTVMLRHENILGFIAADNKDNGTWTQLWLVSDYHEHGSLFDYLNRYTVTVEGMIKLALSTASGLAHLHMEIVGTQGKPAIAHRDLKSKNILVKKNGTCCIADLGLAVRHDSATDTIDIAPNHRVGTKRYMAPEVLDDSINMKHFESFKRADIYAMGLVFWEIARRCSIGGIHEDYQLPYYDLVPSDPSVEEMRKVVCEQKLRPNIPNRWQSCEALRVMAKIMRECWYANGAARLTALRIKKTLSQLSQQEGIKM
Description: Briefly, human ALK5 was incubated with 8 mM MOPS pH 7.0, 0.2 mM EDTA, 1 mM MnCl2, 2 mg/mL casein, 10 mM MgAcetate and [γ-33P-ATP] (specific activity approx. 500 cpm/pmol, concentration as required). The reaction was initiated by the addition of the MgATP mix. After incubation for 40 minutes at room temperature, the reaction was stopped by the addition of a 3% phosphoric acid solution. 10 μL of the reaction was then spotted onto a P30 filtermat and washed three times for 5 minutes in 75 mM phosphoric acid and once in methanol prior to drying and scintillation counting.
Compounds were tested using a 9-point curve with half-Log serial dilutions. The top concentration tested was 10 μM. Test compounds were prepared in 100% DMSO.

MTO129 liver metastases = assay: Mouse liver metastasis initiation/formation assay with MTOs; type: in vivo; conditions: FIG. 13, 1× dose
Text: Mouse tumor organoids (MTOs) are derived from compound transgenic mice (conditional mutations in Apc, Kras, Trp53 and Tgfbr2, as well as bearing Lgr5-EGFP/CreER^T2) of the C57BL6/J strain and cultured as described in Tauriello et al. 2018 Nature 554(7693): 538-543. doi: 10.1038/nature25492. Organoids are tumor epithelial cells grown in a 3D matrix where they adopt an organotypic architecture, typically as spheroids with a lumen. In this way, cells retain a relatively normal polarity (which means that the outside surface, inside/luminal surface and cell-cell contacts are individually specialized), which is more physiological than in conventional 2D cell culture.
In all experiments described in present invention MTO129 were used (Tauriello et al. Nature. 2018).
In patients, treatment doses were reduced to 80 to 150 mg b.i.d in a regime of 14 days on-14 days off.
MTOs expressing a luciferase reporter were measured by bioluminescence imaging, using retroorbital injection of 50 μl 15 mg/ml D-luciferin potassium salt (Resem BV). Photons per second from the region spanning thorax/abdomen were quantified and normalized to the measure at the day of injection.
Control mice were treated with 150 μl of vehicle.
In the experiment shown in FIG. 13, potency of the indicated compounds to inhibit metastasis formation was assessed. Mice were treatments with indicated compounds started two days after MTO129 transplantation and continued during two weeks. Mice were sacrificed at 4 weeks post transplantation and liver metastases (LiMs) were counted by eye on fixed livers.

[3] = UbC-Cre-ER^T2, mTmG MEFs with LigF-expressing MTO129, 1000 to 1 nM, two days

For “4-hydroxytamoxifen [4-OHT, reference compound]”, the “gene recombination in MEFs (fraction EGFP positive)” value [1, 3] was “dose-dependent gene recombination” and the “transcriptional switch (KRT20 up, ASCL2 down)” value ([2]; HEK293T negative for LigF, 1 μM) was “able to induce the transcriptional switch”.

For `CCC(=C(c1ccc(OCCN(C)C)cc1)c1ccc(OCC(=O)c2ccc(O)c(OC)c2)cc1)c1ccccc1` (racemic) [prodrug of formula VII, 2-(4-(1-(4-(2-(dimethylamino)ethoxy)phenyl)-2-phenylbut-1-en-1-yl)phenoxy)-1-(4-hydroxy-3-methoxyphenyl)ethan-1-one], the cleavage plateau (LigF; 50 μM, 15 μg/ml LigF) was 50%, the “time to half way to the plateau” value (LigF; 50 μM, 15 μg/ml LigF) was 3 h and the “time to reach cleavage plateau” value (LigF; 50 μM, 15 μg/ml LigF) was “approximately 30 hours”. For the same compound, the “stability in control without LigF” value (LigF; all other components present) was “remained intact”, the “gene recombination in MEFs (fraction EGFP positive)” value [1, 3] was “very similar to 4-OHT” and the “gene recombination in MEFs (fraction EGFP positive)” value ([1]; without LigF etherase (printed: MEFs lacking UbC-ER^T2)) was “only some recombination at the highest dose”. The “transcriptional switch (KRT20 up, ASCL2 down)” value ([2]; HEK293T-LigF, 10 μM) was “achieved the same response”, the “gene recombination and EGFP expression in liver” value (Cre-ER^T2 fusion protein; 1 or 5 μmol, five days after treatment) was “dose-dependent activation of gene recombination and EGFP expression” and the “gene recombination in peripheral tissues compared to the liver” value (Cre-ER^T2 fusion protein; Example 7 mouse treatment) was “lower”.

For `Oc1ccc2c(-c3c(-c4ccccn4)nn4c3CCC4)ccnc2c1` [Reference compound 337, 4-(2-pydridin-2-yl-5,6-dihydro-4H-pyrrolo[1,2-b]pyrazol-3-yl)-quinolin-7-ol, reference compound], the IC50 (human ALK5) was 320 nM.

`Cc1cccc(-c2nn3c(c2-c2ccnc4cc(O)ccc24)CCC3)n1` [Reference compound 338, 4-[2-(methyl-pyridin-2-yl) 5,6-dihydro-4H-pyrrolo[1,2-b]pyrazol-3-yl]-quinolin-7-ol, reference compound] showed an IC50 (human ALK5) of 371 nM.

`COc1cc(C(=O)COc2ccc3nccc(-c4c(-c5cccc(C)n5)nn5c4CCC5)c3c2)ccc1O` [prodrug of formula III, 1-(4-hydroxy-3-methoxyphenyl)-2-((4-(2-(6-methylpyridin-2-yl)-5,6-dihydro-4H-pyrrolo[1,2-b]pyrazol-3-yl)quinolin-6-yl)oxy)ethan-1-one] showed an IC50 (human ALK5) of 836 nM.

`Cc1cccc(-c2nn3c(c2-c2ccnc4ccc(OC(=O)N5CCC(N6CCCCC6)CC5)cc24)CCC3)n1` [prodrug of formula IV, 4-(2-(6-methylpyridin-2-yl)-5,6-dihydro-4H-pyrrolo[1,2-b]pyrazol-3-yl)quinolin-6-yl [1,4′-bipiperidine]-1′-carboxylate] was tested, and the IC50 (human ALK5) was 2280 nM and the “activity in preventing liver metastasis formation, in words” value (MTO129 liver metastases) was “more robustly than galunisertib”.
